# Measurements: paper PMC3961306, “Comparison of the Cancer Gene Targeting and Biochemical Selectivities of All Targeted Kinase Inhibitors Approved for Clinical Use” (PLoS ONE, 2014)
# Like-named read-outs stand apart in the source and are kept apart here.
# Columns and labels:
# [1] = system: forty-four human cancer cell lines; experiment: Cell proliferation assay (ATPlite, 72 hours) in the 44 cell line Oncolines panel; assay type: cell-based; details: Homo sapiens
# [2] = molecular target: panel of more than 300 wild-type and mutant kinases (313 kinase panel) (Homo sapiens, UniProt O95819); experiment: Kinase profiling in a biochemical assay panel (mobility shift assays and ELISA), %-inhibition at 1 μM; selectivity entropy; details: kinase HGK; compound at 1 μM
# [3] = molecular target: panel of more than 300 wild-type and mutant kinases (313 kinase panel) (Homo sapiens, UniProt P00519, E255K); experiment: as above; details: kinase ABL(E255K); 1 μM compound
# [4] = molecular target: panel of more than 300 wild-type and mutant kinases (313 kinase panel) (Homo sapiens, UniProt P00533, L858R); experiment: as above; details: kinase EGFR(L858R); compound at 1 μM
# [5] = molecular target: panel of more than 300 wild-type and mutant kinases (313 kinase panel) (Homo sapiens, UniProt P09619); experiment: as above; details: kinase PDGFRβ; 1 μM
# [6] = molecular target: panel of more than 300 wild-type and mutant kinases (313 kinase panel) (Homo sapiens, UniProt P11362, V561M); experiment: as above; details: kinase FGFR1(V561M); compound at 1 μM
# [7] = molecular target: panel of more than 300 wild-type and mutant kinases (313 kinase panel) (Homo sapiens, UniProt P19525); experiment: as above; details: kinase PKR; 1 μM
# [8] = molecular target: panel of more than 300 wild-type and mutant kinases (313 kinase panel) (Homo sapiens, UniProt P22612); experiment: as above; details: kinase PKACγ; 1 μM
# [9] = molecular target: panel of more than 300 wild-type and mutant kinases (313 kinase panel) (Homo sapiens, UniProt Q00535); experiment: as above; details: kinase CDK5/p25; 1 μM compound
# [10] = molecular target: T1, panel of more than 300 wild-type and mutant kinases (313 kinase panel) (Homo sapiens, UniProt Q16832); experiment: as above; details: kinase DDR2; compound at 1 μM
# T1 sequence (Q16832 22-855): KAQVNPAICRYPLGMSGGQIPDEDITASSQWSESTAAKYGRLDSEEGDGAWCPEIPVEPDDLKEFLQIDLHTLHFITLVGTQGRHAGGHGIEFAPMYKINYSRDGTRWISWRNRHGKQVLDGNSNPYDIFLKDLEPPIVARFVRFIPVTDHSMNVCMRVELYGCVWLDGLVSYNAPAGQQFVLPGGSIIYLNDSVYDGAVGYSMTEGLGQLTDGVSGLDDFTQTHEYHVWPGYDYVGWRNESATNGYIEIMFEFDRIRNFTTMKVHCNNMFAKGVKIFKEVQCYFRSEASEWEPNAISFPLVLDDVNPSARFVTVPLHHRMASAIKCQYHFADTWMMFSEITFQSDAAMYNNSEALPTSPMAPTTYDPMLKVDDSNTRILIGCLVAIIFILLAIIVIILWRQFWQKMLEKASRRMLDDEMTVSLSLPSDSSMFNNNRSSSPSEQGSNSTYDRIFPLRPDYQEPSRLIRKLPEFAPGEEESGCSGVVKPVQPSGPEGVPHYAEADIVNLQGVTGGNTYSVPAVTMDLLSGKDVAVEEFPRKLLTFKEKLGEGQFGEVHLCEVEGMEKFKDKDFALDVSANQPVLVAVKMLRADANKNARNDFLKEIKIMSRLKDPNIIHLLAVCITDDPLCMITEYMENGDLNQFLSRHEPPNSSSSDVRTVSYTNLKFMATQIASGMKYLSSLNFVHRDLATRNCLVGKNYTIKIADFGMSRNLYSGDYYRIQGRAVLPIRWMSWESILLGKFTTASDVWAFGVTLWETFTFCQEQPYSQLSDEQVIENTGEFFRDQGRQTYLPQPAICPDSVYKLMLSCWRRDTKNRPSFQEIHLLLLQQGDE
# [11] = molecular target: panel of more than 300 wild-type and mutant kinases (313 kinase panel) (Homo sapiens, UniProt Q9UM73, R1275Q); experiment: as above; details: kinase ALK(R1275Q); 1 μM compound
structure (smiles),measurement,setting,value
CCCS(=O)(=O)Nc1ccc(F)c(C(=O)c2c[nH]c3ncc(-c4ccc(Cl)cc4)cc23)c1F [vemurafenib],IC50,"[1]; A 172, read-out: cell panel IC50, A-172",> 31.6 µM
same,IC50,"[1]; A204, cell line A-204, read-out: cell panel IC50, A-204",> 31.6 µM
same,IC50,"[1]; A498, read-out: cell panel IC50, A-498",20.6 µM
same,IC50,"[1]; A549, read-out: cell panel IC50, A-549",29.2 µM
same,IC50,"[1]; A-375, cell line A375, read-out: cell panel IC50, A375",3.98 µM
same,IC50,"[1]; A-427, read-out: cell panel IC50, A-427",> 31.6 µM
same,IC50,"[1]; AU565, read-out: cell panel IC50, AU-565",> 31.6 µM
same,IC50,"[1]; BT-549, read-out: cell panel IC50, BT-549",26.9 µM
same,IC50,"[1]; HCT-116, read-out: cell panel IC50, HCT-116",> 31.6 µM
same,IC50,"[1]; K562, read-out: cell panel IC50, K-562",29.9 µM
same,IC50,"[1]; LS174T, read-out: cell panel IC50, LS 174T",> 31.6 µM
same,IC50,"[1]; SHP77, cell line SHP-77, read-out: cell panel IC50, SHP-77",> 31.6 µM
same,IC50,"[1]; SW-620, cell line SW620, read-out: cell panel IC50, SW620",31.6 µM
same,IC50,"[1]; U2OS, cell line U-2 OS, read-out: cell panel IC50, U-2 OS",> 31.6 µM
same,IC50,"[1]; cell line J82, read-out: cell panel IC50, J82",> 31.6 µM
same,IC50,"[1]; cell line PA-1, read-out: cell panel IC50, PA-1",10.3 µM
same,IC50,"[1]; cell line SJCRH30, read-out: cell panel IC50, SJCRH30",> 31.6 µM
same,IC50,"[1]; cell line SR, read-out: cell panel IC50, SR",8.86 µM
same,IC50,"[1]; U-87 MG cell line, ATPlite, 72 hours, read-out: IC50 in cell proliferation assay (table S5 cellpanel data)",> 31.6 µM
same,IC50,"[1]; cell line 769-P, read-out: cell panel IC50, 769-P",> 31.6 µM
same,IC50,"[1]; cell line 786-0, read-out: cell panel IC50, 786-0",22.6 µM
same,IC50,"[1]; cell line ACHN, read-out: cell panel IC50, ACHN",24 µM
same,IC50,"[1]; cell line AN3 CA, read-out: cell panel IC50, AN3 CA",> 31.6 µM
same,IC50,"[1]; cell line BT-20, read-out: cell panel IC50, BT-20",> 31.6 µM
same,IC50,"[1]; cell line BxPC-3, read-out: cell panel IC50, BxPC-3",14.2 µM
same,IC50,"[1]; cell line C-33 A, read-out: cell panel IC50, C-33 A",> 31.6 µM
same,IC50,"[1]; cell line CAL 27, read-out: cell panel IC50, CAL 27",> 31.6 µM
same,IC50,"[1]; cell line CCRF-CEM, read-out: cell panel IC50, CCRF-CEM",23 µM
same,IC50,"[1]; cell line DLD-1, read-out: cell panel IC50, DLD-1",> 31.6 µM
same,IC50,"[1]; cell line FaDu, read-out: cell panel IC50, FaDu",> 31.6 µM
same,IC50,"[1]; cell line HCT-15, read-out: cell panel IC50, HCT-15",30.6 µM
same,IC50,"[1]; cell line Hs 578T, read-out: cell panel IC50, Hs 578T",24.8 µM
same,IC50,"[1]; cell line Jurkat E6.1, read-out: cell panel IC50, Jurkat E6.1",27.1 µM
same,IC50,"[1]; cell line LoVo, read-out: cell panel IC50, LoVo",31.3 µM
same,IC50,"[1]; cell line MG-63, read-out: cell panel IC50, MG-63",> 31.6 µM
same,IC50,"[1]; cell line MOLT-4, read-out: cell panel IC50, MOLT-4",31.1 µM
same,IC50,"[1]; cell line MeWo, read-out: cell panel IC50, MeWo",> 31.6 µM
same,IC50,"[1]; cell line NCI-H82, read-out: cell panel IC50, NCI-H82",30.4 µM
same,IC50,"[1]; cell line NCI-H460, read-out: cell panel IC50, NCI-H460",30.4 µM
same,IC50,"[1]; cell line OVCAR-3, read-out: cell panel IC50, OVCAR-3",> 31.6 µM
same,IC50,"[1]; cell line RPMI-7951, read-out: cell panel IC50, RPMI-7951",20.9 µM
same,IC50,"[1]; cell line SK-N-AS, read-out: cell panel IC50, SK-N-AS",> 31.6 µM
same,IC50,"[1]; cell line SW48, read-out: cell panel IC50, SW48",> 31.6 µM
same,IC50,"[1]; cell line SW480, read-out: cell panel IC50, SW480",22.5 µM
same,%-inhibition of HGK,[2],26%
same,"%-inhibition, ABL(E255K)",[3],2.49%
same,%-inhibition of EGFR(L858R),[4],0.505%
same,%-inhibition of PDGFRβ,[5],33%
same,%-inhibition of FGFR1(V561M),[6],5.37%
same,%-inhibition of PKR,[7],-0.765%
same,%-inhibition of PKACγ,[8],-3%
same,"%-inhibition, CDK5/p25",[9],5%
same,%-inhibition of DDR2,[10],69%
same,"%-inhibition, ALK(R1275Q)",[11],3.57%
